Three compounds from paper PMC10336128, “In vitro efficacy of different PEGylation designs on cathelicidin-like peptide with high antibacterial and antifungal activity” (Scientific Reports, 2023) can be followed below.

The subject of data set [1] is VRE-faecium ATCC BAA-2316. Briefly: organism not typed. The data set is classed as cell-based, vancomycin-resistant Enteroccus faecium. The protocol:
(§1) Staphylococcus aureus (S. aureus ATCC 25923), Escherichia coli (E. coli ATCC 25922), Pseudomonas aeruginosa (P. aeruginosa ATCC 27853), Candida albicans (C. albicans ATCC 10231), methicillin-resistant S. aureus (MRSA, ATCC 33591) and vancomycin-resistant Enteroccus faecium (VRE-faecium, ATCC BAA-2316) were grown in MHA at 37 °C, overnight. A colony was then selected and transferred to MHB. Each bacterial solution in the MHB was adjusted to 0.5 McFarland with OD600 value between 0.08 and 0.1 using UV–Vis spectrophotometer (NanoDrop™ One/OneC Microvolume, Thermo Scientific). Afterward, 0.5 McFarland bacteria cultures were diluted in MHB at a ratio of 1:100. The peptide/conjugate concentration was quantified using a UV–Vis spectrophotometer at 214 nm. Serial dilutions of peptide and conjugates (1024–0.5 µg/mL) were prepared in MHB with a total volume of 95 µL in a round-bottom 96-well plate. Of the prepared bacterial suspensions, 5 µL was added into sample dilutions in each prepared well. Ampicillin (GeneMark) was used as a positive control and bacterial solution alone was used as a negative control. All 96-well plates were incubated overnight at 37 °C, and all samples were prepared in triplicate. Then, samples were measured at 600 nm using a microplate reader (Gen5 Synergy HT BioTek, USA)[31].

The next data set concerns P. aeruginosa ATCC 27853. In words: microbe, parasite or virus in culture. The data set is classed as cell-based, Pseudomonas aeruginosa. The protocol:
as §1

For a further data set, the system named is MRSA ATCC 33591. In words: microbe, parasite or virus in culture. Format: cell-based, methicillin-resistant S. aureus. The protocol:
as §1

For another data set, the system named is C. albicans ATCC 10231. Briefly: microbe, parasite or virus in culture. Format: cell-based, Candida albicans. On the procedure: as §1
The next data set concerns E. coli ATCC 25922. In words: microbe, parasite or virus in culture. Format: cell-based, Escherichia coli. The protocol: as §1
The next data set concerns S. aureus ATCC 25923. Briefly: microbe, parasite or virus in culture. The data set is classed as cell-based, Staphylococcus aureus. The protocol: as §1
Another data set can be described thus: MTT cytotoxicity assay. Format: cell-based. To be noted: for CC50 at 24 h: human, HaCaT keratinocyte cells; for IC50 at 24 h: mouse. On the procedure:
Human skin keratinocyte (HaCaT, HEKa, PCS-200-011™, ATCC) and mouse embryonic fibroblast (3T3, CRL-1658™, ATCC) cells were counted to 5 × 10^4 cells/well in 100 µL of DMEM containing 10% FBS, and 1% Pen/Strep antibiotics were placed in a flat-bottom 96-well plate and incubated in 5% CO2 at 37 °C. After 24 h, the medium on the attached cells was discarded. Serial peptide/conjugate dilutions (1024–0.5 µg/mL) prepared in complete DMEM (100 µL of total volume) in triplicate were added to the cell-seeded plates and incubated in 5% CO2 at 37 °C for 24 h. Cytotoxicity was determined using the 3-(4, 5-dimethylthiazol-2-yl)-2, 5-diphenyltetrazolium bromide assay kit (MTT, Cell Proliferation Kit, Roche) following the kit procedure and measured at 550 nm and 690 nm using a microplate reader. Cytotoxicity was calculated according to the cell control samples in complete DMEM.
A general note: Tetrazolium assays rely on reduction of a dye to a coloured formazan, in cell work by metabolically active cells.

Data set [2] has as its system human erythrocytes. Briefly: Cell-associated hemolytic activity assay (with S. aureus ATCC 25923). Format: cell-based. To be noted: human erythrocytes plus S. aureus ATCC 25923 (5 µL of 1.5 × 10^6 CFU/mL), tris-saline, 37 °C, read at 414 nm, three replicates. The protocol: (§2) 300 µL of fresh human blood (Acibadem Mehmet Ali Aydinlar University, Istanbul, Turkey) was suspended in 20 mL of sterile tris-saline (150 mM NaCl, 10 mM Tris, pH 7.2) solution and centrifuged 3 times at 1500 rpm for 5 min. Pellet was dissolved with 100 mL of tris-saline and 100 µL blood mix was added into each well of a round-bottom 96-well plate. Serial peptide/conjugate dilutions (1024–0.5 µg/mL) prepared in tris-saline (100 µL of total volume) in triplicate were added on top of the blood mix. 10% DMSO prepared in Triton X-100 treated with blood mix used as a positive control, and the blood mix itself was used as a negative control. The samples were kept on separate round-bottom 96-well plates at 37 °C for 30 min and 1 h, respectively, to examine two different conditions. After incubations, the 96-well plates were centrifuged at 1500 rpm for 10 min. The supernatants were then transferred into a new round-bottom 96-well plate for measurement at 414 nm using a microplate reader. The lysis percentage of the peptide/conjugate was calculated using Eq. (1) as follows:1 Hemolysis%=Sample414nm-Negativecontrol414nm/Positivecontrol414nm-Negativecontrol414nm×100
S. aureus ATCC 25923 bacterial solution in MHB was prepared as in the minimum inhibitory concentration (MIC) experiment. […]

Another data set has as its system plasma proteases. Format: in vitro ADME, human. The protocol:
To separate human plasma, EDTA-treated fresh human blood from a healthy donor (Acibadem Mehmet Ali Aydinlar University, Istanbul, Turkey) was centrifuged at 1500 rpm for 5 min, and the supernatant was collected. The peptide and conjugates were mixed with human plasma to a final concentration of 0.1 mg/mL (1.7 µL, 2048 µg/mL sample completed with plasma) and incubated at 37 °C, 1500 rpm in a shaker. Aliquots were collected after 0 h, 6 h, and 24 h incubation and stored at – 20 °C[32]. 5 µL protease inhibitor was added onto 35 µL aliquots.
S. aureus ATCC 25923 was cultured in MHA overnight at 37 °C. A colony was then selected and transferred to MHB. The bacterial solution was adjusted to 0.5 McFarland with OD600 value between 0.08 and 0.1 using UV–Vis spectrophotometer and diluted to a 1:200 ratio in MHB. 5 µL of the bacterial suspension was added into serial dilutions of aliquots prepared in MHB (40 µL of total volume) in a round-bottom 96-well plate and incubated overnight at 37 °C. Afterward, 96-well plates were measured at 600 nm using a microplate reader. All samples were prepared in triplicate.

In data set [3] the test system is human erythrocytes. Briefly: Hemolytic activity assay. Format: cell-based. On the procedure:
as §2

Read-outs that look alike come from different tables or passages of the source. No end group written: not given here.

As for `CC1(C)S[C@@H]2[C@H](NC(=O)[C@H](N)c3ccccc3)C(=O)N2[C@H]1C(=O)O` [Ampicillin, reference compound], the MIC in data set [1] (VRE-faecium ATCC BAA-2316, serial dilution in MHB, 96-well, overnight 37 °C, OD 600 nm, triplicate, same results in all replicates, mass of whole conjugate, read-out: Minimum Inhibitory Concentration) was determined as 16 µg/mL; with P. aeruginosa ATCC 27853 (Pseudomonas aeruginosa, ATCC27853, P. aeruginosa ATCC 27853, serial dilution in MHB, 96-well, overnight 37 °C, OD 600 nm, triplicate, same results in all replicates, mass of whole conjugate, read-out: Minimum Inhibitory Concentration) it was 256 µg/mL; in the data set on MRSA ATCC 33591 (Staphylococcus aureus, MRSA ATCC 33591, serial dilution in MHB, 96-well, overnight 37 °C, OD 600 nm, triplicate, same results in all replicates, mass of whole conjugate, read-out: Minimum Inhibitory Concentration) it was 32 µg/mL; in the data set on C. albicans ATCC 10231 (Candida albicans, ATCC10231, C. albicans ATCC 10231, serial dilution in MHB, 96-well, overnight 37 °C, OD 600 nm, triplicate, same results in all replicates, mass of whole conjugate, read-out: Minimum Inhibitory Concentration), 16 µg/mL; in the data set with E. coli ATCC 25922 (Escherichia coli, ATCC25922, E. coli ATCC 25922, serial dilution in MHB, 96-well, overnight 37 °C, OD 600 nm, triplicate, same results in all replicates, mass of whole conjugate, read-out: Minimum Inhibitory Concentration), 32 µg/mL; in the data set with S. aureus ATCC 25923 (Staphylococcus aureus, ATCC25923, S. aureus ATCC 25923, serial dilution in MHB, 96-well, overnight 37 °C, OD 600 nm, triplicate, same results in all replicates, mass of whole conjugate, read-out: Minimum Inhibitory Concentration), 8 µg/mL.
For the compound “GIGKFLHSAKKFGKAFVGEIMNS [Mag-2, reference compound]”, the CC50 at 24 h in the data set “MTT cytotoxicity assay” (HaCaT cells, MTT, 24 h, 37 °C, DMEM 10% FBS, three replicates, maximum concentration tested 512 µg/mL, mass of whole conjugate, read-out: inhibitory concentration (IC50), cytotoxicity) is 258 µg/mL. In the data set “MTT cytotoxicity assay” (3T3 cells, MTT, 24 h, 37 °C, DMEM 10% FBS, three replicates, mass of whole conjugate, read-out: inhibitory concentration (IC50), cytotoxicity), the IC50 at 24 h was determined as 153 µg/mL.
In the case of RLLRLLLRLLR-NH2 [TN6], the “Minimum Inhibitory Concentration” value came to 1.56 µg/mL in data set [1] (ATCC BAA-2316); 4 µg/mL with P. aeruginosa ATCC 27853 (ATCC 27853); 0.78 µg/mL in the data set on MRSA ATCC 33591 (ATCC 33591); 1 µg/mL with C. albicans ATCC 10231 (ATCC 10231); 1 µg/mL in the data set on E. coli ATCC 25922 (ATCC 25922); 1 µg/mL with S. aureus ATCC 25923 (ATCC 25923). Also, in the data set with human erythrocytes [2], the “HC50, 60 min with S. aureus ATCC 25923” value is recorded as “hemotoxic effect at all doses”. For the same compound, the “MIC after plasma proteases, 0 h” value against plasma proteases (0 h) is recorded as 2.56 µg/mL. Further, in the data set with plasma proteases (6 h), the “MIC after plasma proteases, 6 h” value stood at 2.56 µg/mL. Moreover, the “MIC after plasma proteases, 24 h” value in the data set with plasma proteases (24 h) is given as 5.12 µg/mL. The “HC50 (dose killing 50% of the red blood cells), 60 min” value with human erythrocytes [3] (human erythrocytes in tris-saline pH 7.2, 60 min, 37 °C, without bacteria, read at 414 nm, three replicates) is recorded as “hemotoxic effect at all doses”; with human erythrocytes [3] (pH 7.2) it was “toxic even at 1 µg/mL”. For the same compound, the “hemolysis, 30 min” value in the data set on human erythrocytes [3] (pH 7.2) was “well above the toxic dose (HC50)”. Also, the CC50 at 24 h in “MTT cytotoxicity assay” is 161 µg/mL. This compound also showed an IC50 at 24 h in the data set “MTT cytotoxicity assay” of 14.6 µg/mL.
